Data set [1] relates to GBM8 human glioblastoma cells. The experiment in a line: GBM8 viability assay (Cell Titer Glo). The following applies: 72 h, Table 1, 3 days incubation, luminescence. It counts as cell-based. In a few lines:
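Patient-derived GBM4 and GBM8 neurosphere cells, 4000 per well in EGF/bFGF/heparin-supplemented NeuroCult medium, were exposed to compound (added in 1% DMSO solution) for 3 days at 37° C. Growth was read by CellTiter-Glo luminescence versus DMSO wells, and IC50s came from 4-parameter fits of serial dilutions.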

Data set [2] has as its system GBM4 human glioblastoma cells. The experiment in a line: GBM4 viability assay (Cell Titer Glo). It counts as cell-based. On the procedure:
Cell culture medium was prepared from a NSA proliferation kit (Neurocult) and NeuroCult supplements (Stemcell Tech Cat. #05751) and treated with 20 μL of 10 μg/mL rh EGF, 10 μL of 10 μg/mL rh bFGF and 10 μL of 0.2% Heparin. In this medium, human glioblastoma cells were cultured in ultra-low attachment tissue culture flasks until 1×10^6 cells ml was achieved (GBM4 and GBM8 are distinct neurosphere cell cultures derived from these human patient tissues). GBM4 and GBM8 cells were dissociated and 10 mL of media containing 4000 human glioblastoma cells per 90 μL were transferred to an ultra-low binding 96-well plate and incubated at 37° C. overnight. On the following day, 10 μL of a 1% DMSO solution of test compound in assay medium was added to wells containing the cell suspension and the mixture incubated at 37° C. for 3 days. At this time, the plate was removed from the incubator and allowed to reach room temperature. After about 30 minutes, 50 μL of Cell Titer Glo solution was added to each well and the plate shaken for 1 minute at low speed. After 10 minutes luminescence was recorded using a Tecan Safire2 reader.
Reduction in luminescence compared to DMSO only control wells was used to determine the percentage inhibition of cell growth. IC50s were calculated using the % inhibition of luminescence for serial dilutions of compounds fitted to a 4-parameter fit within the Prism (San Diego) curve fitting program. Tables 1 (compounds 3-188) and 2 (compounds 190-212) show the GBM4 IC50 and GBM8 IC50 for compounds described herein.
(In ATP-based viability assays light output follows the ATP content of the culture.)

Data set [3] relates to Human GBM8 glioblastoma flank tumor. The experiment in a line: Tumor growth inhibition in mouse flank tumor model, GBM8. To be noted: NSG mice; for Compound + Temozolomide + radiation (median TTE): combined with temozolomide and radiation; for Compound (median TTE): compound alone. It counts as in vivo. On the procedure: (§1) The animals were fed ad libitum water (reverse osmosis, 1 ppm Cl) and NIH 31 Modified and Irradiated Lab Diet® consisting of 18.0% crude protein. 5.0% crude fat, and 5.0% crude fiber. The mice were housed on irradiated Enrich-o'Cobs™ bedding in static microisolators on a 12-hour light cycle at 20-22° C. (68-72° F.) and 40-60% humidity.
(§2) Human GBM4 or GBM8 glioblastoma cell lines were maintained in Complete NeuroCult Proliferation Medium containing 20 ng/mL EGF, 10 ng/mL bFGF and 2 μg/mL Heparin. The cells were cultured in ultra low attachment T75 flask (Corning REF-3814) and the resulting neurospheres were dissociated every 4-6 days using the NeuroCult Chemical Dissociation kit (Stemcell Technologies Cat #05707). Cell cultures were maintained in tissue culture flasks in a humidified incubator at 37° C., in an atmosphere of 5% CO2 and 95% air. Cell samples were collected one passage prior to cell implant and preserved in freezing media.
(§3) Cells used for implantation were harvested during log phase growth and resuspended in cold PBS containing in 50% Matrigel™ (BD Biosciences). Tumor growth was initiated on Day 1 by subcutaneous injection of GBM4 cells into the right flank of each mouse with 1×10^7 tumor cells (0.1 mL cell suspension) and tumor growth was monitored in four groups (n=8) beginning on Day 12. Groups for treatment included group 1 (vehicle), group 2 (test Olig2 inhibitor), group 3 (treatment with temozolomide and radiation) and group 4 (test Olig2 inhibitor combined with temozolomide and radiation). The tumors were measured with a caliper in two dimensions to monitor size. Tumor size was calculated using the formula. Tumor Volume (mm^3)=w^2×½: where w=width and l=length, in mm, of a tumor. Tumor weight may be estimated with the assumption that 1 mg is equivalent to 1 mm^3 of tumor volume Tumors were measured with a caliper twice weekly for the duration of the study Temozolomide (Merck & Co., Lot No. L046487) was administered orally at doses of 5 mg/kg or 10 mg/Kg). Radiation was adminstered with a Faxitron model CP-160 X-ray system. Each animal was immobilized in a live restrainer. Therapy was administered for 1.3 min at 160 KV and 6.0 mA, providing a dose of 1 gray (Gy) for each animal.
The study endpoint was a tumor volume of 2000 mm^3 or Day 152, whichever came first. Each animal was euthanized for tumor progression (TP) when its tumor reached the volume endpoint. The time to endpoint (TTE) for each animal was calculated with the following equation: […]
The data set is comprised of the first observation that exceeded the study endpoint volume and the three consecutive observations that immediately preceded the attainment of the endpoint volume. […] In instances in which the log-transformed calculated TTE preceded the day prior to reaching endpoint or exceeded the day of reaching tumor volume endpoint, a linear interpolation was performed to approximate the TTE. Any animal determined to have died from treatment-related (TR) causes was assigned a TTE value equal to the day of death. […]
Treatment outcome was evaluated from tumor growth delay (TGD), which was defined as the increase in the median TTE for a treatment group compared to the control group: TGD=T−C, expressed in days, or as a percentage of the median TTE of the control group: TGD(%)=T−C/C×100 • T=median TTE for a treatment group, • C=median TTE for the control group.

The subject of a further data set is GBM8 cells, intracranial. The experiment in a line: Survival in orthotopic glioblastoma mouse model, GBM8. It counts as in vivo. The following applies: athymic nude mice, oral daily from day 4, percent increase of median versus vehicle. The source says: (§4) Patient-derived xenograft samples were used in this study as a more faithful representation of human glioblastoma compared to immortalized cell lines. The maintenance of patient-derived xenografts exclusively by serial passage in mice has been advocated as a means to faithfully preserve the genetic features of the original tumors. Tumor integrity is periodically confirmed by short tandem repeat assessment. These methods were used to obtain cell suspensions of G06 cells for use in vivo. Briefly, short-term cultured cells were injected into the flank of athymic nude mice (Nu/Nu: Envigo). Tumors grown in these mice were harvested and cultured to afford cell suspension for viability studies. Mice with tumors 1-1.5 cm^3 were euthanized using CO2. Tumors were swabbed with Betadine (Carefusion #29906-016) and excised with a sterile scalpel. The tumor sample was placed in a culture plate and broken up with a sterile syringe. […] The pellets were resuspended in Stem Cell Media to a concentration of […] as measured by a hemocytometer.
(§5) G06 or cultured GBM8 cells (3×10^5, 3 μL), were injected intracranially into anesthetized female athymic nude mice (Nu/Nu: Envigo). […] Animal counts and body weight were monitored daily. Survival improvement was measured as a percent increase of the median for drug treatment versus vehicle.

Data set [4] relates to G06 patient-derived glioblastoma cells, intracranial. The experiment in a line: Survival in orthotopic glioblastoma mouse model, G06. The class given is in vivo. To be noted: athymic nude mice, oral daily from day 4, percent increase of median versus vehicle.
Text: as §4, §5

The test system of data set [5] is Human GBM4 glioblastoma flank tumor. The experiment in a line: Tumor growth inhibition in mouse flank tumor model, GBM4. The class given is in vivo. The following applies: NSG mice. As for the experimental part: as §1, §2
as §3, with “Tumor Volume (mm^3)=w^2×½: where w=width and l=length, in mm, of a tumor.” left out, “Radiation was adminstered with a Faxitron model CP-160 X-ray system. Each animal was immobilized in a live restrainer. Therapy was administered for 1.3 min at 160 KV and 6.0 mA, providing a dose of 1 gray (Gy) for each animal.” left out
The study endpoint was a tumor volume of 2000 mm^3 or Day 152, whichever came first. […] The time to endpoint (TTE) for each animal was calculated with the following equation: […]

A short description of data set [6]: Solubility of compound 174 in DI water. The class given is physicochemical. The following applies: thermodynamic from solid, 2 determinations, read-out: Estimated solubility. As for the experimental part: Into a 1 dram vial was added a sample of compound 174. DI water was added until the solid was fully dissolved. Solubility was estimated from the amount of solid per mL of water added. Estimated solubility ˜30 mg/mL (2 determinations).

[7] abbreviates: 72 h, Table 1, 3 days incubation, luminescence, read-out: GBM4 IC50.
Setting [8] is: Table 3, GBM4 cells, read-out: GBM4 IC50 (Cytotoxicity).
Setting [9] is: temozolomide orally plus radiation 1 Gy.

“And” between values parts separate entries of the source, which are not always exact repeats. Equal entries are not always repeated. Structures can show the parent of a compound that is named as a salt. Where two headings read alike, the source gives them in different places.

Consider eight compounds from patent publication US12145913B2, “Inhibition of Olig2 activity” (Curtana Pharmaceuticals, Inc., priority 2016, dated 2024).

As a reminder, the IC50 is the concentration at which inhibition is half-maximal. For orientation: solubility means the dissolved amount per volume that the medium holds.

As to `Cc1cc(NCCCN(C)C)nc(NC(=O)Nc2ccc3ccccc3c2)n1` [Compound 3, 1-(4-((3-(dimethylamino)propyl)amino)-6-methylpyrimidin-2-yl)-3-(naphthalen-2-yl)urea], the IC50 in data set [1] and in data set [2] (setting [7]) was under 500 nM throughout.
As for `Cc1cc(NCCCN)nc(NC(=O)Nc2ccc3ccccc3c2)n1` [Compound 4, 1-(4-((3-aminopropyl)amino)-6-methylpyrimidin-2-yl)-3-(naphthalen-2-yl)urea], the IC50 in data set [1] and in data set [2] (setting [7]) was under 500 nM in each case.
As for `CCNc1cc(C)nc(NC(=O)Nc2ccc3ccccc3c2)n1` [Compound 19], the IC50 was under 500 nM in data set [1] and 60 nM in data set [2] (setting [8]).
For `CC(=O)NCCNc1cc(C)nc(NC(=O)Nc2ccc3ccccc3c2)n1` [Compound 35, N-(2-((6-methyl-2-(3-(naphthalen-2-yl)ureido)pyrimidin-4-yl)amino)ethyl)acetamide], the IC50 in data set [1] is under 500 nM; in data set [2] (setting [8]), 140 nM.
On the same counts, the results for `Cc1cc(NCCNS(C)(=O)=O)nc(NC(=O)Nc2ccc3ccccc3c2)n1` [Compound 36, N-(2-((6-methyl-2-(3-(naphthalen-2-yl)ureido)pyrimidin-4-yl)amino)ethyl)methanesulfonamide] are under 500 nM and 40 nM.
On to `Cc1cc(NCCCN(C)C)nc(NC(=O)Nc2ccc(Cl)c(Cl)c2)n1` [Compound 174, 1-(3,4-dichlorophenyl)-3-(4-((3-(dimethylamino)propyl)amino)-6-methylpyrimidin-2-yl)urea dimethanesulfonic acid salt], for which the IC50 in data set [1] is under 500 nM; in data set [2] (setting [8]) it was 240 nM. Moreover, the “Compound + Temozolomide + radiation (median TTE)” value in data set [3] is recorded as over 140.0 days; in data set [5] (combined with temozolomide and radiation) it was 152.0 days. The “Compound (median TTE)” value in data set [3] is reported as 61.3 days; in data set [5] (compound alone, endpoint 2000 mm^3 or Day 152) it was 73.0 days. Also, the “GBM8: Estimated Median Survival Benefit (%)” value in the data set on GBM8 cells, intracranial was 48%. Besides, the “G06: Estimated Median Survival Benefit (%)” value in data set [4] is 54%. Moreover, the solubility in data set [6] is about 30 mg/mL.
`Cc1cc(N)nc(NC(=O)Nc2ccc(OC(F)(F)F)cc2)n1` [Compound 176, 1-(4-amino-6-methylpyrimidin-2-yl)-3-(4-(trifluoromethoxy)-phenyl)urea]: the IC50 in data set [1] was under 500 nM. Further, in data set [3], the “Compound + Temozolomide + radiation (median TTE)” value turned out to be 127.9 days and the “Compound (median TTE)” value came out at 56.4 days. In the data set on GBM8 cells, intracranial, the “GBM8: Estimated Median Survival Benefit (%)” value is on record as 72%. Also, the “G06: Estimated Median Survival Benefit (%)” value in data set [4] was 46%.
For `Cn1nnc2c(C(N)=O)ncn2c1=O` [Temozolomide, reference compound], the “Temozolomide + radiation (median TTE)” value in data set [3] (setting [9]) is 86.2 days and 78 days; in data set [5] (setting [9]), 116.3 days.
